From patent US8686050B2, “Diglycidic ether derivative therapeutics and methods for their use” (British Columbia Cancer Agency Branch, priority 2008, dated 2014) come the findings set out here.

Entries after “also recorded” stand apart in the source; their conditions may differ. Structures can show the parent of a compound that is named as a salt.

Data set [1] concerns PC3 cells. The experiment in a line: Proliferation of PC3 cells (BrdU incorporation). Type of data set: cell-based, human. The settings on record: 185-9-2 5 μg/ml, 3 days. From the text: LNCaP cells were employed initially for all experiments because they are well-differentiated human prostate cancer cells in which ligand-independent activation of the AR by FSK has been characterized (Nazareth et al 1996 J. Biol. Chem. 271, 19900-19907; and Sadar 1999 J. Biol. Chem. 274, 7777-7783). LNCaP cells express endogenous AR and secrete prostate-specific antigen (PSA) (Horoszewicz et al 1983 Cancer Res. 43, 1809-1818). LNCaP cells can be grown either as monolayers in cell culture or as tumors in the well-characterized xenograft model that progresses to androgen independence in castrated hosts (Sato et al 1996 J. Steroid Biochem. Mol. Biol. 58, 139-146; Gleave et al 1991 Cancer Res. 51, 3753-3761; Sato et al 1997 Cancer Res. 57, 1584-1589; and Sadar et al 2002 Mol. Cancer. Ther. 1(8), 629-637). […] Small molecules that specifically target the AR-NTD should have no effect on PC3 cells. […] Reporter specificity may be determined using several alternative reporter gene constructs. […]
The prostate gland is an androgen-dependent organ where androgens are the predominant mitogenic stimulus (Isaacs J T, Scott W W, Coffey D S., Prog Clin Biol Res. 1979; 33:133-44). […] BrdU incorporation was measured 4 days later to indicate changes in proliferation in response to androgen (FIG. 12). […]
(Uptake of a labelled nucleoside into DNA is a usual measure of proliferation.)

The nature of data set [2]: General toxicity in xenograft-bearing mice (behavior, body weight, organ histology). As to the method:
For routine histology, major organs and xenografts were harvested upon completion of the experiment and were fixed in 10% neutral buffered formalin and then embedded in paraffin. Fixed sections were cut and stained with H&E. To determine possible effects of compounds on the proliferation rates and apoptosis in xenografts, Ki-67 immunostaining and the TUNEL assay was performed. […] Levels of AR were determined by immunohistochemistry or Western blot analysis.
LNCaP human prostate cancer cells express endogenous androgen receptor (AR) and prostate-specific antigen (PSA), and progress to androgen independence in castrated hosts. LNCaP cells (10^6/ml) were implanted subcutaneously into NOD-SCID male mice that were at least 8 weeks in age. The cells were suspended in 75 μl of RPMI medium 1640 (5% FBS) with 75 μl of Matrigel and injected into the flank region of the host under anesthesia. […] A total of five doses were given to the animal. Tumor volume and body weight were measured every 5 days.
IHC data was prepared by a commercial lab that was blinded to treatments.
PC3 cells were implanted subcutaneously into NOD-SCID male mice. […] Animals were treated every 5 days with a subcutaneous dose of 20 mg/kg body weight of PNG01-185-017-9-2 or matching volume of vehicle (control, DMSO). Tumor volume and body weight were measured every 5 days.

The target of data set [3] is T1, AR (Homo sapiens, UniProt P10275, T878A).
T1 sequence (P10275 1-920 T878A): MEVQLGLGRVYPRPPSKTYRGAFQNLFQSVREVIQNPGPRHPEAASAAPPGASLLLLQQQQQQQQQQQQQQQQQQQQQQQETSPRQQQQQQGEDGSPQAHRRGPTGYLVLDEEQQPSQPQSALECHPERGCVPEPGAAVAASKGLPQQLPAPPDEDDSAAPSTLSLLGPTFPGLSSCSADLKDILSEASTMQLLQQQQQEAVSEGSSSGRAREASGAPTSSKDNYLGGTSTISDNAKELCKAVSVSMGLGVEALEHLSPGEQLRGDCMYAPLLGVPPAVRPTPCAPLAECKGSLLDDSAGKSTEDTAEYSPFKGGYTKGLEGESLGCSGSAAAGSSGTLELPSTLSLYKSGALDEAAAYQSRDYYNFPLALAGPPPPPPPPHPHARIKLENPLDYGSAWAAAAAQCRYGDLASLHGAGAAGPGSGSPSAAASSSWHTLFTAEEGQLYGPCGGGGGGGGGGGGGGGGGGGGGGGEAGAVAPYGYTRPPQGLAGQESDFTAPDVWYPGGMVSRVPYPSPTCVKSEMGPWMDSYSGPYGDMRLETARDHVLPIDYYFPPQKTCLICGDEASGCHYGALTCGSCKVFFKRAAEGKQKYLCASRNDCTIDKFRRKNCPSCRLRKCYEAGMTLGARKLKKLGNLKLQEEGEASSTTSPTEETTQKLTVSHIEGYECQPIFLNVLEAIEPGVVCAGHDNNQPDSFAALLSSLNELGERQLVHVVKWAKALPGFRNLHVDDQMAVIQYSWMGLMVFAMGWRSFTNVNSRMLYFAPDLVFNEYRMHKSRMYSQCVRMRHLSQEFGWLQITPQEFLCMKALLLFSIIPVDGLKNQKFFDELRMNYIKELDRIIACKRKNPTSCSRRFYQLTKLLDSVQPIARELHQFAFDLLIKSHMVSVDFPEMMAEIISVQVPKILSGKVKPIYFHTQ
Put plainly: Nuclear translocation of AR in LNCaP cells (fractionation, fluorescence microscopy). Type of data set: cell-based. On the set-up: LNCaP cells express endogenous AR and secrete prostate-specific antigen (PSA); endogenous in cells; host or cells: LNCaP.

`CC(C)(c1ccc(OCC(O)CO)cc1)c1ccc(OCC(O)CCl)cc1` (stereo not shown) [185-9-2, BADGE.HCL.H2O]: the “proliferation of PC3 cells (BrdU incorporation)” value in data set [1] is “does NOT block proliferation; also recorded: not to block proliferation”. Moreover, the “body weight, LNCaP xenograft mice, intravenous” value in data set [2] (I.V. 50 mg/kg every other day) is recorded as “did not reduce body weight”. Further, in data set [2] (day 0 versus day 25), the “body weight, LNCaP xenograft mice, intratumoral” value is recorded as “did not reduce body weight”. Further, the “pathology review of lung, heart, liver, spleen, and kidney” value in data set [2] (i.v. 50 mg/kg every other day, 5 injections, H&E) is on record as “showed no signs of toxicity”. In data set [2] (mouse, in vivo, iv), the “general toxicity indicated by animal behavior or body weight” value is on record as “not to cause general toxicity”. For the same molecule, the “nuclear translocation of the AR in the absence of androgen” value in data set [3] (compound on its own) is given as “did not cause nuclear translocation of the AR”. The “nuclear translocation of AR protein in response to androgen” value in data set [3] (pretreated 1 hr, 10 nM DHT) is listed as “nor did it prevent nuclear translocation of AR protein”.
